Assay results from article PMC6541611, “The UbiX flavin prenyltransferase reaction mechanism resembles class I terpene cyclase chemistry” (Nature Communications, 2019).
Read-outs that look alike come from different tables or passages of the source.

Legend:
EcUbiX = biological target: T1, EcUbiX (Escherichia coli, UniProt P0AG03); experiment: UV-Vis single turnover; assay type: biochemical
T1 construct: gene ubiX
T1 sequence (P0AG03 1-189): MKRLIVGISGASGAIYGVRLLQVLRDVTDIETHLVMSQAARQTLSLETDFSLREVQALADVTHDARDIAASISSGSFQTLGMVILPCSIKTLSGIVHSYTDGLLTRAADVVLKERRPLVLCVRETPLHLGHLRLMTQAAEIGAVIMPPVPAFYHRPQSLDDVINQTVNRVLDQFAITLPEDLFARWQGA

AnUbiX [1] = biological target: T2, AnUbiX (Aspergillus niger, UniProt A3F715); experiment: crystal structure; assay type: binding
T2 construct: gene PAD1
T2 sequence (A3F715 1-227): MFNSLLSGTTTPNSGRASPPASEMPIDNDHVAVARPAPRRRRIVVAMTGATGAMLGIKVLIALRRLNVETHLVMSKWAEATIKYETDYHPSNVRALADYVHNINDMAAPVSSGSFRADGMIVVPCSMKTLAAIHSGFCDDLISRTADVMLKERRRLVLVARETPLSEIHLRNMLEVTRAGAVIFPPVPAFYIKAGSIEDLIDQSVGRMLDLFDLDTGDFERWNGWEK

AnUbiX [2] = biological target: T2, AnUbiX; experiment: UV-Vis single turnover; assay type: biochemical

CC(C)=CCOP(=O)(O)OP(=O)(O)O [DMAPP]
UV-Vis single turnover (EcUbiX; 2 mM DMAPP, FMNH2, pH 8, prFMN formed): is only able to catalyse DMAPP-specific prFMNH2 formation under the conditions tested | crystal structure (AnUbiX [1]; co-purified, no exogenous DMAPP added, with oxidised FMN, pH 6.2): electron density directly located above the oxidised FMN that corresponds to a bound DMAPP

CC(C)=CCOP(=O)(O)O [DMAP]
UV-Vis single turnover (AnUbiX [2]): Crucially, DMAP incubation does affect the resulting FMN spectrum | UV-Vis single turnover (EcUbiX): AnUbiX and EcUbiX appear to catalyse the prenyltransferase step with DMAP

Cc1cc2nc3c(=O)[nH]c(=O)nc-3n(C[C@H](O)[C@H](O)[C@H](O)COP(=O)(O)O)c2cc1C [FMN]
crystal structure (AnUbiX [1]): The crystal structure of AnUbiX in complex with FMN and DMAPP
